According to patent publication US12384787B2, “Fused heterocyclic compounds and their use as pest control agents” (PI INDUSTRIES LTD., priority 2019, dated 2025):

Tests used:
Format in all cases: in vivo
Myzus persicae = Myzus persicae leaf dip method (capsicum leaves); conditions: foliar, third instar nymphs, 72 h after release, dead and moribund combined, compared to untreated control, read-out: Percent mortality
Protocol: The leaf dip method was used for testing, wherein the required quantity of the test compounds were weighed and dissolved in a surfactant solution, kept on a Vortex at 2000 rpm with zirconia beads for 90 min for proper mixing and then diluted with 0.01% Triton-X solution to the desired test concentration. Capsicum leaves were dipped in the solution for 10 seconds, shade dried for 20 min and then the leaves were kept in glass units with the petiole dipped in water. Known numbers of third instar nymphs were released into the glass units and then kept in the plant growth chambers at a temperature of 25° C. and relative humidity of 70%. Observations on dead, moribund and living nymphs were recorded at 72 h after the release. Percent mortality was calculated by combining dead and moribund nymphs and comparing the result to the one of the untreated control. The compounds 9 14 16 22 23 50 71 104 and 131 were showing efficacy higher than 70 percent mortality @ 300 PPM.

Plutella xylostella = Plutella xylostella leaf dip method (cabbage leaves); conditions: foliar, second instar larvae, 72 h after release, dead and moribund combined, compared to untreated control, read-out: Percent mortality
Protocol: The leaf dip method was used for testing, wherein the required quantity of the compounds were weighed and dissolved in a surfactant solution, kept on a Vortex at 2000 rpm with zirconia beads for 90 min for proper mixing and then diluted with 0.01% Triton-X solution to the desired test concentration. Cabbage leaves were dipped in the solution for 10 seconds, shade dried for 20 min and then transferred to bioassay trays. A single second instar larva was released into each bioassay tray cell and the tray was covered with a lid. The bio-assay trays were kept under laboratory conditions at a temperature of 25° C. and relative humidity of 70%. Observations on dead, moribund and living larvae were recorded at 72 h after the release. Percent mortality was calculated by combining dead and moribund larvae and comparing the result to the one of the untreated control.

Bemisia tabaci = Bemisia tabaci leaf dip method (cotton leaves); conditions: foliar, freshly emerged adults, 72 h after release, dead and moribund combined, compared to untreated control, read-out: Percent mortality
Protocol: The leaf dip method was used for testing, wherein the required quantity of the test compounds were weighed and dissolved in surfactant solution, kepton a Vortex at 2000 rpm with zirconia beads for 90 min for proper mixing and then diluted with 0.01% Triton-X solution to the desired test concentration. Cotton leaves were dipped in the solution for 10 seconds, shade dried for 20 min and then the leaves were kept in glass units with the petiole dipped in water. Known numbers of freshly emerged adults were released and kept in the plant growth chamber at a temperature of 25° C. and relative humidity of 70%. Observations on dead, moribund and living adults were recorded at 72 h after the release. Percent mortality was calculated by combining dead and moribund adults and comparing the result to the one of the untreated control.

Nilaparvata lugens = Nilaparvata lugens seedling dip method (paddy seedlings); conditions: third instar nymphs, 72 h after release, dead and moribund combined, compared to untreated control, read-out: Percent mortality
Protocol: Seedling dip method was used for screening, wherein the required quantity of the test compounds were weighed and dissolved in surfactant solution, kept on a Vortex at 2000 rpm with zirconia beads for 90 min for proper mixing, then diluted with 0.01% Triton-X solution to the desired test concentration. Paddy seedlings were dipped in the solution for 10 seconds, shade dried for 20 min and then transferred into glass tubes with the roots kept in water. Known numbers of third instar nymphs were released into the test tubes and the tubes were kept in the plant growth chamber at a temperature of 25° C. and relative humidity of 75%. Observations on dead, moribund and living nymphs were recorded at 72 h after the release. Percent mortality was calculated by combining dead and moribund nymphs and comparing the result to the one of the untreated control.

Spodoptera litura = Spodoptera litura diet incorporation method; conditions: third instar larvae, 96 h after release, dead and moribund combined, compared to untreated control, read-out: Percent mortality
Protocol: Diet incorporation method was used, in which the required quantity of test compounds were weighed and dissolved in surfactant solution, kept on vortex for 90 min for proper mixing, then diluted with water to the desired test concentrations. The solutions were incorporated into semi-synthetic diet when the temperature reached approximately 50° C. in the bioassay containers. The diet and solution was stirred thoroughly for properly mixing and was left to cool for 30 min. The solidified diet was cut into equal pieces, and then each piece was transferred into one cell of the bio-assay trays. A single starved third instar larva was released into each of these cells of the bioassay trays and the tray was covered with a lid. The bio-assay trays were kept under laboratory conditions at a temperature of 25° C. and relative humidity of 70%. Observations on dead, moribund and alive larvae were recorded at 96 h after the release of the larvae. Percent mortality was calculated by combining dead and moribund larvae and comparing the result to the one of the untreated control.

Helicoverpa armigera = Helicoverpa armigera diet incorporation method; conditions: third instar larvae, 96 h after release, dead and moribund combined, compared to untreated control, read-out: Percent mortality
Protocol: Diet incorporation method was used, in which the required quantity of test compounds were weighed and dissolved in a surfactant solution, kept on vortex for 90 min for proper mixing, then was diluted with water to the desired test concentrations. The solutions were incorporated into semi-synthetic diet when the temperature reached approximately 50° C. in the bioassay containers. The diet and solution was stirred thoroughly for properly mixing and then left to cool for 30 min. The solidified diet was cut into equal pieces, and then each piece was transferred into one cell of the bio-assay trays. A single third starved instar larva was released into each of these cells of the bioassay trays and each tray was covered with a lid. The bio-assay trays were kept under laboratory conditions at a temperature of 25° C. and relative humidity of 70%. Observations on dead, moribund and alive larvae were recorded at 96 h after the release of the larvae. Percent mortality was calculated by combining dead and moribund larvae and comparing the result to the one of the untreated control.

SMILES	mortality at 300 ppm (Myzus persicae)	mortality at 300 ppm (Plutella xylostella)	mortality at 300 ppm (Bemisia tabaci)	mortality at 300 ppm (Nilaparvata lugens)	mortality at 300 ppm (Spodoptera litura)	mortality at 300 ppm (Helicoverpa armigera)
CCSc1nn2c(C)cc(C)nc2c1-c1nc2cc(C(F)(F)F)cnc2n1C [Compound 9, 2-(2-(Ethylthio)-5,7-dimethylpyrazolo[1,5-a]pyrimidin-3-yl)-3-methyl-6-(trifluoromethyl)-3H-imidazo[4,5-b]pyridine]	> 70%	> 70%				
CCSc1nn2cccnc2c1-c1nc2cc(C(F)(F)F)cnc2n1C [Compound 14, 2-(2-(Ethylthio)pyrazolo[1,5-a]pyrimidin-3-yl)-3-methyl-6-(trifluoromethyl)-3H-imidazo[4,5-b]pyridine]	> 70%					
CCS(=O)(=O)c1nn2cccnc2c1-c1nc2cc(C(F)(F)F)cnc2n1C [Compound 16, 2-(2-(Ethylsulfonyl)pyrazolo[1,5-a]pyrimidin-3-yl)-3-methyl-6-(trifluoromethyl)-3H-imidazo[4,5-b]pyridine]	> 70%					
CCSc1nn2cccnc2c1-c1nc2cc(C(F)(F)F)ncc2n1C [Compound 22, 2-(2-(Ethylthio)pyrazolo[1,5-a]pyrimidin-3-yl)-3-methyl-6-(trifluoromethyl)-3H-imidazo[4,5-c]pyridine]	> 70%	> 70%	> 70%			
CCS(=O)(=O)c1nn2cccnc2c1-c1nc2cc(C(F)(F)F)ncc2n1C [Compound 23, 2-(2-(Ethylsulfonyl)pyrazolo[1,5-a]pyrimidin-3-yl)-3-methyl-6-(trifluoromethyl)-3H-imidazo[4,5-c]pyridine]	> 70%					
CCS(=O)(=O)c1nn2cc(Cl)cnc2c1-c1nc2cc(C(F)(F)F)cnc2n1C [Compound 50, 2-(6-Chloro-2-(ethylsulfonyl)pyrazolo[1,5-a]pyrimidin-3-yl)-3-methyl-6-(trifluoromethyl)-3H-imidazo[4,5-b]pyridine]	> 70%	> 70%				
CCS(=O)(=O)c1nn2cc(-c3ccc(Cl)cc3)cnc2c1-c1nc2cc(C(F)(F)F)cnc2n1C [Compound 63, 2-(6-(4-Chlorophenyl)-2-(ethylsulfonyl)pyrazolo[1,5-a]pyrimidin-3-yl)-3-methyl-6-(trifluoromethyl)-3H-imidazo[4,5-b]pyridine]		> 70%		> 70%	> 70%	
CCS(=O)(=O)c1nn2cc(Br)cnc2c1-c1nc2cc(C(F)(F)F)cnc2n1C [Compound 71, 2-(6-Bromo-2-(ethylsulfonyl)pyrazolo[1,5-a]pyrimidin-3-yl)-3-methyl-6-(trifluoromethyl)-3H-imidazo[4,5-b]pyridine]	> 70%	> 70%				
CCSc1nn2c(-c3ccc(OC(F)(F)C(F)F)cc3)ccnc2c1-c1nc2cc(C(F)(F)F)cnc2n1C [Compound 87, 2-(2-(Ethylthio)-7-(4-(1,1,2,2-tetrafluoroethoxy)phenyl)pyrazolo[1,5-a]pyrimidin-3-yl)-3-methyl-6-(trifluoromethyl)-3H-imidazo[4,5-b]pyridine]		> 70%			> 70%	> 70%
CCS(=O)(=O)c1nn2c(-c3ccc(OC(F)(F)C(F)F)cc3)ccnc2c1-c1nc2cc(C(F)(F)F)cnc2n1C [Compound 90, 2-(2-(Ethylsulfonyl)-7-(4-(1,1,2,2-tetrafluoroethoxy)phenyl)pyrazolo[1,5-a]pyrimidin-3-yl)-3-methyl-6-(trifluoromethyl)-3H-imidazo[4,5-b]pyridine]		> 70%			> 70%	> 70%
CCSc1nn2c(-c3ccc(OC(F)(F)C(F)F)cc3)ccnc2c1-c1nc2cc(C(F)(F)F)ncc2n1C [Compound 93, 2-(2-(Ethylthio)-7-(4-(1,1,2,2-tetrafluoroethoxy)phenyl)pyrazolo[1,5-a]pyrimidin-3-yl)-3-methyl-6-(trifluoromethyl)-3H-imidazo[4,5-c]pyridine]		> 70%			> 70%	> 70%
CCS(=O)(=O)c1nn2c(-c3cc(F)cc(F)c3)ccnc2c1-c1nc2cc(C(F)(F)F)cnc2n1C [Compound 101, 2-(7-(3,5-Difluorophenyl)-2-(ethylsulfonyl)pyrazolo[1,5-a]pyrimidin-3-yl)-3-methyl-6-(trifluoromethyl)-3H-imidazo[4,5-b]pyridine]		> 70%			> 70%	> 70%
CCS(=O)(=O)c1nn2c(-c3cc(F)cc(Cl)c3)ccnc2c1-c1nc2cc(C(F)(F)F)cnc2n1C [Compound 103, 2-(7-(3-Chloro-5-fluorophenyl)-2-(ethylsulfonyl)pyrazolo[1,5-a]pyrimidin-3-yl)-3-methyl-6-(trifluoromethyl)-3H-imidazo[4,5-b]pyridine]		> 70%			> 70%	> 70%
CCS(=O)(=O)c1nn2c(-c3ccc(Cl)c(Cl)c3)ccnc2c1-c1nc2cc(C(F)(F)F)cnc2n1C [Compound 104, 2-(7-(3,4-Dichlorophenyl)-2-(ethylsulfonyl)pyrazolo[1,5-a]pyrimidin-3-yl)-3-methyl-6-(trifluoromethyl)-3H-imidazo[4,5-b]pyridine]	> 70%	> 70%				> 70%
CCS(=O)(=O)c1nn2c(-c3ccc(Cl)c(F)c3)ccnc2c1-c1nc2cc(C(F)(F)F)cnc2n1C [Compound 118, 2-(7-(4-Chloro-3-fluorophenyl)-2-(ethylsulfonyl)pyrazolo[1,5-a]pyrimidin-3-yl)-3-methyl-6-(trifluoromethyl)-3H-imidazo[4,5-b]pyridine]		> 70%			> 70%	> 70%
CCSc1nn2c(-c3ccc(Cl)c(F)c3)ccnc2c1-c1nc2cc(C(F)(F)F)ncc2n1C [Compound 119, 2-(7-(4-Chloro-3-fluorophenyl)-2-(ethylthio)pyrazolo[1,5-a]pyrimidin-3-yl)-3-methyl-6-(trifluoromethyl)-3H-imidazo[4,5-c]pyridine]		> 70%	> 70%			
CCSc1nn2c(C)ccnc2c1-c1nc2cc(C(F)(F)F)cnc2n1C [Compound 131, 2-(2-(Ethylthio)-7-methylpyrazolo[1,5-a]pyrimidin-3-yl)-3-methyl-6-(trifluoromethyl)-3H-imidazo[4,5-b]pyridine]	> 70%	> 70%				
